In patent US20250011288A1 (BRISTOL-MYERS SQUIBB COMPANY, priority 2021, published 2025) one finds EC50 data, which are given here for 15 compounds.

Structures are written as SMILES. pEC50: −log10 of the molar value.

The target of the assay is T1, human RXFP1 (Homo sapiens, UniProt Q9HBX9).
T1 construct: expressed in transfected cells
T1 sequence (Q9HBX9 1-757): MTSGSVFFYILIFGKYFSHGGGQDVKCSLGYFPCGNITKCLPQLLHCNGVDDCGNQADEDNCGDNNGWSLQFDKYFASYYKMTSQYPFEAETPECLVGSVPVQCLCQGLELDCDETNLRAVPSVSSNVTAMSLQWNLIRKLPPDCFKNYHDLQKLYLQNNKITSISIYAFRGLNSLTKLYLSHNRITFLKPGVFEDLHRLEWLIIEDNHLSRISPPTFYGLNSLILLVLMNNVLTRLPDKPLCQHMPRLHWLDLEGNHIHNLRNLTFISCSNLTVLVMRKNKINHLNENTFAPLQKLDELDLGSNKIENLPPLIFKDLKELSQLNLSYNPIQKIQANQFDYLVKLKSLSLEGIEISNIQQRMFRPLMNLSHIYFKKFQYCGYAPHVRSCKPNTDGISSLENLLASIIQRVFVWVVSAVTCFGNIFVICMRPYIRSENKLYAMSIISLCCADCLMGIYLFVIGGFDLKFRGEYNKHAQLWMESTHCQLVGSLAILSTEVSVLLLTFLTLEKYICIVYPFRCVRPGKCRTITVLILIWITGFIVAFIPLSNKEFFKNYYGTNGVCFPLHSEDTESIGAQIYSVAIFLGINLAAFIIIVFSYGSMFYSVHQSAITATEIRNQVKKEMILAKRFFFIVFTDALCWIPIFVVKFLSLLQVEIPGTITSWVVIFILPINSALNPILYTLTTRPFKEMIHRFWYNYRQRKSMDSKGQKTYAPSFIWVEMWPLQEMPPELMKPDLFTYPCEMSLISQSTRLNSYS
The assay is described as follows: human RXFP1 (hRXFP1) HEK293 cAMP assay (HTRF). As to conditions: HEK293 cells stably expressing human RXFP1, 30 min at room temperature. Type of assay: cell-based. The procedure, abridged: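 HEK293 cells stably expressing human RXFP1 (1500 cells/well) in HBSS/20 mM HEPES/0.05% BSA/0.5 mM IBMX, treated with compound (0.010 nM–50 µM final, 2% DMSO) for 30 min at room temperature. Intracellular cAMP read by HTRF; potency from 4-parameter logistic fit of cAMP versus concentration.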
In general terms: Cyclic AMP is a second messenger, typically raised through Gs and lowered through Gi signalling.
For orientation: pEC50 means −log10 of the EC50, conventionally taken in molar units. As to `O=C(N[C@@H]1C2CCC(/C2=C/C(F)(F)F)[C@@H]1C(=O)Nc1ccc(F)c(C(F)(F)F)c1)c1cc(Br)ncc1OCCO` (stereo partly drawn) [Example 45, 2-Bromo-N-[(2R,3S,7Z)-3-{[4-fluoro-3-(trifluoromethyl)phenyl]carbamoyl}-7-(2,2,2-trifluoroethylidene)bicyclo[2. 2.1]heptan-2-yl]-5-(2-hydroxyethoxy) pyridine-4-carboxamide], the pEC50 was 6.25.

Compound `COc1cc(C(=O)N[C@@H]2C3CCC(C3=C(C)C)[C@@H]2C(=O)Nc2ccc(F)c(C(F)(F)F)c2)c(OC)nn1` (stereo partly drawn) [Example 4, N-[(2R,3S)-3-{[4-fluoro-3-(trifluoromethyl)phenyl]carbamoyl}-7-(propan-2-ylidene)bicyclo [2.2.1]heptan-2-yl]-3,6-dimethoxy-pyridazine-4-carboxamide] showed a pEC50 of 5.30. In turn, `COc1ncc(-c2cnc3n2CC(O)CC3)cc1C(=O)N[C@H]1[C@@H](C(=O)Nc2ccc(F)c(C(F)(F)F)c2)[C@H]2CC[C@@H]1/C2=C\C1CC1` (stereo partly drawn) [Example 102, N-((1R,2R,3S,4R,Z)-7-(cyclopropyl-methylene)-3-((4-fluoro-3-(trifluoromethyl)phenyl)carbamoyl)bicyclo[2.2.1]heptan-2-yl)-5-(6-hydroxy-5,6,7,8-tetrahydroimidazo [1,2-a]pyridin-3-yl)-2-methoxynicotinamide] had a pEC50 of 8.60. On to `COc1ncc(-c2cc([C@H](OC(=O)NC3CCC3)C(F)(F)F)ccc2F)cc1C(=O)N[C@@H]1C2CCC(/C2=C/CCC(F)(F)F)[C@@H]1C(=O)Nc1ccc(F)c(C(F)(F)F)c1` (stereo partly drawn) [Example 168, (1S)-2,2,2-trifluoro-1-[4-fluoro-3-(5-{[(2R,3S,7Z)-3-{[4-fluoro-3-(trifluoromethyl)phenyl]carbamoyl}-7-(4,4,4-trifluorobutylidene)bicyclo[2.2.1]heptan-2-yl]carbamoyl}-6-methoxypyridin-3-yl)phenyl]ethyl N-cyclobutyl-carbamate], for which the pEC50 was 8.28. Consider `CC1(C)Cc2cc(C3=NOC4COCC34)cc(C(=O)N[C@@H]3C4CCC(/C4=C/C4CC4)[C@@H]3C(=O)Nc3ccc(F)c(C(F)(F)F)c3)c2O1` (stereo partly drawn) [Example 145, 5-{3aH,4H,6H,6aH-furo[3,4-d][1,2]oxazol-3-yl}-N-[(1R,2R,3S, 4R,7Z,)-7-(cyclopropyl-methylidene)-3-{[4-fluoro-3-(trifluoromethyl)phenyl]carbamoyl}bicyclo[2.2.1]heptan-2-yl]-2,2-dimethyl-2,3-dihydro-1-benzofuran-7-carboxamide], for which the negative logarithm of the EC50 (pEC50) is 8.52. `O=C(N[C@@H]1C2CCC(/C2=C/C(F)(F)F)[C@@H]1C(=O)Nc1ccc(F)c(C(F)(F)F)c1)c1cnc2ccc(Cl)cc2c1` (stereo partly drawn) [Example 17, 6-chloro-N-[(2R,3S,7Z)-3-{[4-fluoro-3-(trifluoromethyl)phenyl]carbamoyl}-7-(2,2,2-trifluoroethylidene)bicyclo[2.2.1]heptan-2-yl]quinoline-3-carboxamide] had a pEC50 of 5.35. With `COc1ncc(-c2cc([C@H](OC(=O)NC3CCOCC3)C(F)(F)F)ccc2F)cc1C(=O)N[C@@H]1C2CCC(/C2=C/C2CC2)[C@@H]1C(=O)Nc1ccc(F)c(C(F)(F)F)c1` (stereo partly drawn) [Example 185, (1S)-1-[3-(5-{[(2R,3S,7Z)-7-(cyclopropyl-methylidene)-3-{[4-fluoro-3-(trifluoromethyl)phenyl]carbamoyl}bicyclo[2.2.1]heptan-2-yl]carbamoyl}-6-methoxypyridin-3-yl)-4-fluorophenyl]-2,2,2-trifluoroethyl N-(oxan-4-yl)carbamate] the figure was 8.60; with `COc1ncc(C2=NOC3CC(CO)CC23)cc1C(=O)N[C@H]1[C@@H](C(=O)Nc2ccc(F)c(C(F)(F)F)c2)[C@H]2CC[C@@H]1/C2=C\C1CCCC1` (stereo partly drawn) [Example 101, N-((1R,2R,3S,4R,Z)-7-(cyclopentyl-methylene)-3-((4-fluoro-3-(trifluoromethyl)phenyl)carbamoyl)bicyclo[2.2.1]heptan-2-yl)-5-(5-(hydroxymethyl)-3a,5,6,6a-tetrahydro-4H-cyclopenta[d]isoxazol-3-yl)-2-methoxynicotinamide], 8.80; with `O=C(O)c1ccc(F)c(-c2cnc(OCCO)c(C(=O)N[C@@H]3C4CCC(/C4=C/C(F)(F)F)[C@@H]3C(=O)Nc3ccc(F)c(C(F)(F)F)c3)n2)c1` (stereo partly drawn) [Example 47, 4-Fluoro-3-(6-{[(2R,3S,7Z)-3-{[4-fluoro-3-(trifluoromethyl)phenyl]carbamoyl}-7-(2,2,2-trifluoroethylidene)bicyclo[2.2.1]heptan-2-yl]carbamoyl}-5-(2-hydroxyethoxy)pyrazin-2-yl)benzoic acid], 6.70. Compound `COc1ncc(C2=NOC3CC(O)CC23)cc1C(=O)N[C@H]1[C@@H](C(=O)Nc2ccc(F)c(C(F)(F)F)c2)[C@H]2CC[C@@H]1/C2=C\C1CC1` (stereo partly drawn) [Example 138, N-((1R,2R,3S,4R,Z)-7-(cyclopropyl-methylene)-3-((4-fluoro-3-(trifluoromethyl)phenyl)carbamoyl)bicyclo[2.2.1]heptan-2-yl)-5-(5-hydroxy-3a,5,6,6a-tetrahydro-4H-cyclopenta[d]isoxazol-3-yl)-2-methoxynicotinamide] had a pEC50 of 8.32. The value for `COc1ccc(-c2ccc(C(=O)O)cc2)nc1C(=O)N[C@@H]1C2CCC(C2=C(C)C)[C@@H]1C(=O)Nc1ccc(F)c(C(F)(F)F)c1` (stereo partly drawn) [Example 22, 4-(6-{[(2R,3S)-3-{[4-fluoro-3-(trifluoromethyl)phenyl]carbamoyl}-7-(propan-2-ylidene)bicyclo [2.2.1]heptan-2-yl]carbamoyl}-5-methoxypyridin-2-yl)benzoic acid] was 5.77; that for `COc1ncc(-c2cc([C@H](OC(=O)NC3CC3)C(F)(F)F)ccc2F)cc1C(=O)N[C@H]1[C@@H](C(=O)Nc2ccc(F)c(C(F)(F)F)c2)[C@H]2CC[C@@H]1/C2=C\C(C)C` [Example 166, (1S)-2,2,2-trifluoro-1-[4-fluoro-3-(5-{[(1R,2R,3S,4R, 7Z)-3-{[4-fluoro-3-(trifluoromethyl)phenyl]carbamoyl}-7-(2-methylpropylidene)bicyclo[2.2.1]heptan-2-yl]carbamoyl}-6-methoxypyridin-3-yl)phenyl]ethyl N-cyclopropyl-carbamate] was 8.60. `COCCn1cc(OC)c(C(=O)N[C@@H]2C3CCC(/C3=C/C3CC3)[C@@H]2C(=O)Nc2ccc(F)c(C(F)(F)F)c2)n1` (stereo partly drawn) [Example 79] gave a pEC50 of 6.64. The compound `COc1ncc(C2=NOC3CC(C(O)C(F)(F)F)CC23)cc1C(=O)N[C@H]1[C@@H](C(=O)Nc2ccc(F)c(C(F)(F)F)c2)[C@H]2CC[C@@H]1/C2=C\C1CC1` (stereo partly drawn) [Example 131, N-((1R,2R,3S,4R,Z)-7-(cyclopropyl-methylene)-3-((4-fluoro-3-(trifluoromethyl)phenyl)carbamoyl)bicyclo[2.2.1]heptan-2-yl)-2-methoxy-5-(5-(2,2,2-trifluoro-1-hydroxyethyl)-3a,5,6,6a-tetrahydro-4H-cyclopenta[d]isoxazol-3-yl)nicotinamide] gave a pEC50 of 8.80. As for `COc1ncccc1C(=O)N[C@@H]1C2CCC(C2=C(C)C)[C@@H]1C(=O)Nc1ccc(F)c(C(F)(F)F)c1` (stereo partly drawn) [Example 8, N-[(2R,3S)-3-{[4-fluoro-3-(trifluoromethyl)phenyl]carbamoyl}-7-(propan-2-ylidene)bicyclo [2.2.1]heptan-2-yl]-2-methoxypyridine-3-carboxamide], the pEC50 was 5.89.
